Each block holds one molecule with its values, some of them ahead of it. The source made the active and inactive calls. The calls are words filed in the database; no cut-off is given here.
Key:
[1] = Metabolic stability in mouse liver microsomes assessed as compound remaining after 30 mins; assay type: ADME; details: read-out: Stability
[2] = target: T1, 11-beta-hydroxysteroid dehydrogenase 1 (Homo sapiens, UniProt P28845); test: Inhibition of human 11beta-HSD1 using microsomal fraction and NADPH assessed as conversion of cortisone to cortisol by biochemical enzyme assay
[3] = target: T1, 11-beta-hydroxysteroid dehydrogenase 1; test: Inhibition of human 11beta-HSD1 expressed in HEK293 cells using NADPH assessed as conversion of cortisone to cortisol by cell-based assay
[4] = target: 11-beta-hydroxysteroid dehydrogenase 1 (Mus musculus, UniProt P50172); test: Inhibition of mouse 11beta-HSD1 using microsomal fraction and NADPH assessed as conversion of cortisone to cortisol by biochemical enzyme assay
[5] = target: T2, 11-beta-hydroxysteroid dehydrogenase type 2 (Homo sapiens, UniProt P80365); test: Inhibition of human 11beta-HSD2 using microsomal fraction and NADPH assessed as conversion of cortisone to cortisol by biochemical enzyme assay
T2 sequence (P80365 whole entry): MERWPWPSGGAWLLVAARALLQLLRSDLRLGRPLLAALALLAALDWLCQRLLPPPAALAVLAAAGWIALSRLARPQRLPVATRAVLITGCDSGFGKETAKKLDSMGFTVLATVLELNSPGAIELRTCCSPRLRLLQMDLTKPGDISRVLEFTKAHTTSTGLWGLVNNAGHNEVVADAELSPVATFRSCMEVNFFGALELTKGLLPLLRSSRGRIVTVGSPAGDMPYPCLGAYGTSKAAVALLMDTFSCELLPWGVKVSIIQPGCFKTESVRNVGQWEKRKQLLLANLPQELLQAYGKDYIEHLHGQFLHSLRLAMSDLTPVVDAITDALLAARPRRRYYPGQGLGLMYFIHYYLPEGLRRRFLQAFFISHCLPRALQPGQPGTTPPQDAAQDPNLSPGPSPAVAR

[6] = Clearance in mouse at 5 mg/kg, iv; assay type: ADME, organism-based; parameters: dose 5 mg/kg, route intravenous; details: in vivo
[7] = Oral bioavailability in mouse at 20 mg/kg; assay type: ADME, organism-based; details: in vivo
[8] = system: Mus musculus; test: Ex vivo inhibition of 11beta-HSD1 in male C57BL/6 mouse liver assessed as conversion of cortisone to cortisol at 30 mg/kg, po after 2 hrs by enzyme immunoassay; assay type: functional; details: C57BL/6, Liver
[9] = system: Mus musculus; test: Ex vivo inhibition of 11beta-HSD1 in male C57BL/6 mouse liver assessed as conversion of cortisone to cortisol at 30 mg/kg, po after 6 hrs by enzyme immunoassay; assay type: functional; details: C57BL/6, Liver
[10] = system: Mus musculus; test: Ex vivo inhibition of 11beta-HSD1 in male C57BL/6 mouse epididymal fat assessed as conversion of cortisone to cortisol at 30 mg/kg, po after 2 hrs by enzyme immunoassay; assay type: functional; details: C57BL/6, 2 h
[11] = system: Mus musculus; test: Ex vivo inhibition of 11beta-HSD1 in male C57BL/6 mouse epididymal fat assessed as conversion of cortisone to cortisol at 30 mg/kg, po after 6 hrs by enzyme immunoassay; assay type: functional; details: C57BL/6, 6 h
[12] = system: Mus musculus; test: Reduction in non-fasting blood glucose level in ob/ob type 2 diabetic mouse model at 10 mg/kg, po once daily after 10 days relative to vehicle treated control; assay type: functional; details: 240 h
[13] = system: Mus musculus; test: Reduction in LDL cholesterol level in ob/ob type 2 diabetic mouse model at 10 mg/kg, po once daily after 10 days relative to vehicle treated control; assay type: functional, organism-based; parameters: dose 10 mg/kg
[14] = system: Mus musculus; test: Reduction in triglyceride level in ob/ob type 2 diabetic mouse model at 10 mg/kg, po once daily after 10 days relative to vehicle treated control; assay type: functional, organism-based; parameters: dose 10 mg/kg
[15] = system: Mus musculus; test: Toxicity in ob/ob type 2 diabetic mouse model assessed as HDL cholesterol at 10 mg/kg, po once daily after 10 days relative to vehicle treated control; assay type: organism-based; parameters: dose 10 mg/kg, route oral; details: in vivo, 240 h
[16] = system: Mus musculus; test: Toxicity in ob/ob type 2 diabetic mouse model assessed as food intake at 10 mg/kg, po once daily after 10 days relative to vehicle treated control; assay type: organism-based; parameters: dose 10 mg/kg, route oral; details: in vivo, 240 h
[17] = system: Mus musculus; test: Toxicity in ob/ob type 2 diabetic mouse model assessed as body weight at 10 mg/kg, po once daily after 10 days relative to vehicle treated control; assay type: organism-based; parameters: dose 10 mg/kg, route oral; details: in vivo, 240 h

Chain of 11-beta-hydroxysteroid dehydrogenase 1 (Mus musculus, UniProt P50172) (P50172 whole entry): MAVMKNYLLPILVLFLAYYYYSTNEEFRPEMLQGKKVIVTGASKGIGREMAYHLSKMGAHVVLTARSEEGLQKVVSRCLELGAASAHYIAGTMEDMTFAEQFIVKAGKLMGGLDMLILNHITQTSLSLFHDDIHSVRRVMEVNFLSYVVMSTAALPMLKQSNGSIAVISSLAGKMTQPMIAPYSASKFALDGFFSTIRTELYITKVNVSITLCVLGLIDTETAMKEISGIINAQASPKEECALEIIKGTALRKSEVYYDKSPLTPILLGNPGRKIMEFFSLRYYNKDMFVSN
T1 sequence (P28845 whole entry): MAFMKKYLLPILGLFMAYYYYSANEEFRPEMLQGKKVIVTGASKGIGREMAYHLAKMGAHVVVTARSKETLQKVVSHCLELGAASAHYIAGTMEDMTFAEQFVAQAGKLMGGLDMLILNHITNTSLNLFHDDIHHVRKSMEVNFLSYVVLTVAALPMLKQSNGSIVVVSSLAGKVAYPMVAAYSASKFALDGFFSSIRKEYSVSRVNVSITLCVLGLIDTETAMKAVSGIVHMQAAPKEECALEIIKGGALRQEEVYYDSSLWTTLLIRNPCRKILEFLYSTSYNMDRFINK

remaining at 0.5 h [1]: 82%
Structure (SMILES): C[C@H]1CN(c2ccc(C#N)cc2)CCN1c1cccc(C(=O)N[C@H]2C3CC4CC2C[C@](O)(C4)C3)n1

remaining at 0.5 h [1]: 97%
Structure (SMILES): Nc1ccc(N2CCN(c3cccc(C(=O)N[C@H]4C5CC6CC4C[C@](O)(C6)C5)n3)CC2)cc1

remaining at 0.5 h [1]: 32%
Structure (SMILES): NC(=O)c1ccc(N2CCN(c3cccc(C(=O)N[C@H]4C5CC6CC4C[C@](O)(C6)C5)n3)CC2)c(Cl)c1

remaining at 0.5 h [1]: 84%
Structure (SMILES): C[C@@H]1CN(c2ccc(C#N)cc2)CCN1c1cccc(C(=O)N[C@H]2C3CC4CC2C[C@](O)(C4)C3)n1

remaining at 0.5 h [1]: 57%
Structure (SMILES): C[C@@H]1CN(c2ccc(C(N)=O)cc2)CCN1c1cccc(C(=O)N[C@H]2C3CC4CC2C[C@](O)(C4)C3)n1

IC50 [2]: 1.6 nM
IC50 [3]: 3.9 nM
IC50 [4]: 2.5 nM
IC50 [5]: > 10000 nM
remaining at 0.5 h [1]: 87%
clearance [6]: 29.7 mL/min/kg
bioavailability [7]: 17%
Structure (SMILES): CS(=O)(=O)c1ccc(N2CCN(c3cccc(C(=O)N[C@H]4C5CC6CC4C[C@](O)(C6)C5)n3)CC2)cc1
inhibition in vivo at 30 mg/kg [8]: 53%
inhibition in vivo at 30 mg/kg [9]: 15%
inhibition in vivo at 30 mg/kg [10]: 70%
inhibition in vivo at 30 mg/kg [11]: 22%

bioavailability [7]: 5%
Structure (SMILES): N#Cc1ccc(N2CCN(c3cccc(C(=O)N[C@H]4C5CC6CC4C[C@](O)(C6)C5)n3)CC2)cc1
inhibition in vivo at 30 mg/kg [9]: < 10%
inhibition in vivo at 30 mg/kg [11]: < 10%

remaining at 0.5 h [1]: 63%
Structure (SMILES): N#Cc1ccc(C2CCN(c3cccc(C(=O)N[C@H]4C5CC6CC4C[C@](O)(C6)C5)n3)CC2)nc1

remaining at 0.5 h [1]: 74%
Structure (SMILES): Cc1ccc(N2CCN(c3cccc(C(=O)N[C@H]4C5CC6CC4C[C@](O)(C6)C5)n3)CC2)cc1

IC50 [2]: 2.2 nM
IC50 [3]: 3.1 nM
IC50 [4]: 1.8 nM
IC50 [5]: > 10000 nM
remaining at 0.5 h [1]: 97%
clearance [6]: 14.2 mL/min/kg
bioavailability [7]: 41%
Structure (SMILES): C[C@@H]1CN(c2ccc(S(C)(=O)=O)cc2)CCN1c1cccc(C(=O)N[C@H]2C3CC4CC2C[C@](O)(C4)C3)n1
inhibition in vivo at 30 mg/kg [8]: 85%
inhibition in vivo at 30 mg/kg [9]: 77%
inhibition in vivo at 30 mg/kg [10]: 95%
inhibition in vivo at 30 mg/kg [11]: 86%
inhibition in vivo at 10 mg/kg [12]: 41%
inhibition [13]: Active
inhibition [14]: Active
Activity [15]: Non-toxic
Activity [16]: Non-toxic
Activity [17]: Non-toxic

remaining at 0.5 h [1]: 65%
Structure (SMILES): NC(=O)c1ccc(N2CCN(c3cccc(C(=O)N[C@H]4C5CC6CC4C[C@](O)(C6)C5)n3)CC2)cc1

remaining at 0.5 h [1]: 79%
Structure (SMILES): O=C(N[C@H]1C2CC3CC1C[C@](O)(C3)C2)c1cccc(N2CCN(c3ccc(C(F)(F)F)cc3)CC2)n1

remaining at 0.5 h [1]: 77%
Structure (SMILES): COc1ccc(N2CCN(c3cccc(C(=O)N[C@H]4C5CC6CC4C[C@](O)(C6)C5)n3)[C@@H](C)C2)cc1

remaining at 0.5 h [1]: 28%
Structure (SMILES): NC(=O)c1ccc(N2CCN(c3cccc(C(=O)N[C@H]4C5CC6CC4C[C@](O)(C6)C5)n3)CC2)cc1F

remaining at 0.5 h [1]: 46%
Structure (SMILES): N#Cc1ccc(C2CCN(c3cccc(C(=O)N[C@H]4C5CC6CC4C[C@](O)(C6)C5)n3)CC2)cc1

remaining at 0.5 h [1]: 86%
Structure (SMILES): COc1ccc(N2CCN(c3cccc(C(=O)N[C@H]4C5CC6CC4C[C@](O)(C6)C5)n3)CC2)cc1

remaining at 0.5 h [1]: 80%
Structure (SMILES): COc1ccc(N2CCN(c3cccc(C(=O)N[C@H]4C5CC6CC4C[C@](O)(C6)C5)n3)[C@H](C)C2)cc1

IC50 [2]: 4.1 nM
IC50 [3]: 4.9 nM
IC50 [4]: 6.6 nM
IC50 [5]: > 10000 nM
remaining at 0.5 h [1]: 84%
clearance [6]: 7.67 mL/min/kg
bioavailability [7]: 32%
Structure (SMILES): C[C@@H]1CN(c2ccc(C(C)(C)O)cc2)CCN1c1cccc(C(=O)N[C@H]2C3CC4CC2C[C@](O)(C4)C3)n1
inhibition in vivo at 30 mg/kg [8]: 73%
inhibition in vivo at 30 mg/kg [9]: 58%
inhibition in vivo at 30 mg/kg [10]: 94%
inhibition in vivo at 30 mg/kg [11]: 77%

remaining at 0.5 h [1]: 73%
Structure (SMILES): O=C(N[C@H]1C2CC3CC1C[C@](O)(C3)C2)c1cccc(N2CCN(c3ccc(F)cc3)CC2)n1

remaining at 0.5 h [1]: 88%
Structure (SMILES): N#Cc1ccc(N2CCN(c3cccc(C(=O)N[C@H]4C5CC6CC4C[C@](O)(C6)C5)n3)CC2)c(Cl)c1

remaining at 0.5 h [1]: 74%
Structure (SMILES): O=C(N[C@H]1C2CC3CC1C[C@](O)(C3)C2)c1cccc(N2CCN(c3ccc([N+](=O)[O-])cc3)CC2)n1

IC50 [2]: 4.2 nM
IC50 [3]: 6.8 nM
remaining at 0.5 h [1]: 88%
Structure (SMILES): C[C@H]1CN(c2ccc(S(C)(=O)=O)cc2)CCN1c1cccc(C(=O)N[C@H]2C3CC4CC2C[C@](O)(C4)C3)n1

remaining at 0.5 h [1]: 61%
Structure (SMILES): CNC(=O)c1ccc(N2CCN(c3cccc(C(=O)N[C@H]4C5CC6CC4C[C@](O)(C6)C5)n3)[C@H](C)C2)cc1

remaining at 0.5 h [1]: 58%
Structure (SMILES): N#Cc1ccc(N2CCC(c3cccc(C(=O)N[C@H]4C5CC6CC4C[C@](O)(C6)C5)n3)CC2)cc1

remaining at 0.5 h [1]: 79%
Structure (SMILES): N#Cc1ccc(N2CCN(c3cccc(C(=O)N[C@H]4C5CC6CC4C[C@](O)(C6)C5)n3)CC2)cc1F

remaining at 0.5 h [1]: 52%
Structure (SMILES): N#Cc1ccc(N2CCC(c3cccc(C(=O)N[C@H]4C5CC6CC4C[C@](O)(C6)C5)n3)CC2)nc1

remaining at 0.5 h [1]: 81%
Structure (SMILES): N#Cc1ccc(N2CCN(c3cccc(C(=O)N[C@H]4C5CC6CC4C[C@](O)(C6)C5)n3)CC2)nc1

remaining at 0.5 h [1]: 69%
Structure (SMILES): O=C(N[C@H]1C2CC3CC1C[C@](O)(C3)C2)c1cccc(N2CCN(c3ccc(Cl)cc3)CC2)n1

Source: ChEMBL document CHEMBL3399978, “Synthesis and optimization of picolinamide derivatives as a novel class of 11β-hydroxysteroid dehydrogenase type 1 (11β-HSD1) inhibitors” (Bioorg Med Chem Lett, 2015)
